Data as given in the NIST ThermoML archive (doi:10.1021/je049953t).
Numbers after ± are expanded uncertainties.

Columns and labels:
[1] = excess molar enthalpy (molar enthalpy of mixing); xn = mol fraction of the nth substance listed; conditions: 101.33 kPa, Liquid, Flow calorimetry
[2] = 298.15 K; 101.33 kPa; Liquid

excess molar enthalpy ([1]; 298.15 K, x1 = 0.03) [kcal/mol]	excess molar enthalpy ([1]; 298.15 K, x1 = 0.0611) [kcal/mol]	excess molar enthalpy ([1]; 298.15 K, x1 = 0.0613) [kcal/mol]	excess molar enthalpy ([1]; 298.15 K, x1 = 0.094) [kcal/mol]	excess molar enthalpy ([1]; 298.15 K, x1 = 0.9462) [kcal/mol]	excess molar enthalpy ([1]; 313.15 K, x1 = 0.03) [kcal/mol]	excess molar enthalpy ([1]; 313.15 K, x1 = 0.0611) [kcal/mol]	excess molar enthalpy ([1]; 313.15 K, x1 = 0.0613) [kcal/mol]	excess molar enthalpy ([1]; 313.15 K, x1 = 0.094) [kcal/mol]	excess molar enthalpy ([1]; 313.15 K, x1 = 0.1281) [kcal/mol]	excess molar enthalpy ([1]; 313.15 K, x1 = 0.9178) [kcal/mol]	excess molar enthalpy ([1]; 313.15 K, x1 = 0.9462) [kcal/mol]	excess molar enthalpy ([1]; 313.15 K, x1 = 0.9469) [kcal/mol]	mass density [2] [kg/m3]	SMILES
0.0551 ± 0.00148	0.105 ± 0.00239	0.105 ± 0.00239	0.154 ± 0.00335	0.112 ± 0.00239	0.0551 ± 0.00148	0.107 ± 0.00239	0.108 ± 0.00239	0.157 ± 0.00359	0.202 ± 0.0043	0.174 ± 0.00382	0.113 ± 0.00263	0.11 ± 0.00263	–	CCCC(C)C [2-methylpentane] + CN(C)C=O
–	–	–	–	–	–	–	–	–	–	–	–	–	648.45 ± 0.44	CCCC(C)C [2-methylpentane]
–	–	–	–	–	–	–	–	–	–	–	–	–	943.81 ± 0.15	CN(C)C=O [dimethylformamide]
